{
  "source": "paper PMC8234462",
  "about": "“Novel Cyclophilin Inhibitor Decreases Cell Proliferation and Tumor Growth in Models of Hepatocellular Carcinoma” (Cancers, 2021)",
  "key": {"HUH7": {"test_system": "HUH7", "test": "Phospho-Histone 3 (PH3) staining", "format": "cell-based, human", "details": "10 or 100 nM, 48 h", "description": "(§1) For the quantification of mitotic cells, HEPG2 cells were seeded in a 6-well plate at a concentration of 1.5 × 10^5 cells/well and HUH7 at 1 × 10^5 cells/well in a 6-well plate. Both cells lines were treated with 10 or 100 nM of NV651 or the equivalent volume of DMSO. Samples were fixed for HEPG2 at 24 h and for HUH7 at 48 h of treatment, as described above. Permeabilization was performed by adding 0.25% Tween20 (Sigma-Aldrich, Cat# P1379-500ML, St. Louis, MO, USA) diluted in PBS. Samples were stained with primary antibody mouse anti-PH3 (Merck Millipore, Cat# 05-806, Burlington, MA, USA) at a dilution of 1/100 overnight at 4 °C and with the secondary antibody goat anti-Mouse IgG AF488 conjugated (Life technologies, Cat# A11029, Carlsbad, CA, USA) for 1 h at room temperature. After washing, 1-µg/mL DAPI was added for the staining of the DNA content.\n(§2) Data was acquired with FACSverse Instrument and analyzed with FCS Express 6 Flow Research."}, "HEPG2 [1]": {"test_system": "HEPG2", "test": "Phospho-Histone 3 (PH3) staining", "format": "cell-based, human", "details": "10 or 100 nM, 24 h", "description": "as §1, §2"}, "HEPG2 [2]": {"test_system": "HEPG2", "test": "Cell proliferation and viability with Acridine Orange and DAPI", "format": "cell-based, human", "description": "For the quantification of the total cell number, cells were seeded at a concentration of 6000 cells/well for HEPG2 and 9000 cells/well for HUH7 in a 24-well plate. After 24 h of seeding, cells were treated with 10, 50 or 100 nM of NV651 or DMSO as the control dissolved in their correspondent media, fresh media with compound was added every 72 h. After 72 h of treatment, cells were harvested and stained with DAPI (Santa Cruz Biotechnology, Cat# SC3598, Dallas, TX, USA) and Acridine Orange (AO) (Sigma-Aldrich, Cat# A9231-10ML, St. Louis, MO, USA) at final concentrations of 5 µg/mL and 1.5 µg/mL, respectively. Quantification of the total cell number and nonviable cells was performed every day up to the tenth day. Total cell number was quantified with acridine orange staining, and the cell viability in each sample was quantified by the ratio between cells positive for DAPI staining (nonpermeable dye) and acridine orange staining."}, "[3]": {"test_system": "primary human hepatocytes", "test": "Cell health parameters by fluorescent imaging (ArrayScan)", "format": "cell-based", "details": "for AC50: Hepatocyte", "description": "This experiment was performed in Cyprotex (Watertown, MA, USA). Cryopreserved Primary human hepatocytes plated on 384 black-well plate cells were dosed with NV651 at a range of concentrations (0.195, 0.391, 0.781, 1.56, 3.13, 6.25, 12.5, 25, 50 and 100 µM). At the end of the incubation period (24 or 48 h), several health parameters were analyzed to evaluate the potential cytotoxicity of NV651 in primary human hepatocytes, including the total cell count with Hoechst staining and PI subtraction (a nonpermeable dye to quantify dead cells), nuclear intensity, Glutathione content (GSH), mitochondrial membrane potential, reactive oxygen species (ROS), steatosis, nuclear size and DNA structure. Plates were then scanned using an automated fluorescent cellular imager, ArrayScan (Thermo Scientific Cellomics)."}, "[4]": {"parameters": "method as in PMID 31717385", "details": "cited from earlier work"}, "Luc+ HEPG2 xenograft": {"test_system": "Luc+ HEPG2 xenograft", "test": "In vivo efficacy, xenograft tumor growth", "parameters": "species or system NMRI nude mice", "details": "10 mg/kg daily subcutaneous", "description": "Twenty-five percent buffered Hydroxy Propyl beta Cyclodextrin (HPbCD) was prepared from Hydroxy Propyl beta Cyclodextrin (Roquette, Lestrem, France), EDTA solution and phosphate buffer at a pH of 7.4, filtered with a […] (VWR, Cat# 28145-483, Radnor, PA, USA) and stored at 4 °C. NV651 was prepared at a concentration of 10 mg/kg with 25% buffered HPbCD (vehicle). NV651 solution was sonicated for 30 min in a water bath sonicator (Bioruptor, Diagenode, Denville, NJ, USA) and shaken for up to an hour, followed by a secondary sterilization with a 0.2-µm filter. NV651 solution was stored at 4 °C up to 2 weeks, with stability confirmed up to 3 weeks.\nHEPG2 cells were transduced with RediFect Red-FLuc-GFP (Perkin Elmer, Cat# CLS960003, Waltham, MA, USA) with a MOI = 3 and sorted for GFP^+ in a FACSAria III (BD Biosciences, Franklin Lakes, NJ, USA). […] Cell viability and a percentage of the GFP^+ cells were analyzed before the start of the in vivo experiment with a BD FACSverse cytometer (BD Biosciences, Franklin Lakes, NJ, USA). […]\nTumor growth was assessed with an in vivo imaging system (IVIS) one week after the injection of the cells. […] Body weights were measured at time 0 of the treatment and twice a week after the beginning of the treatment. […] Tumor growth was analyzed for up to 3 weeks. […]"}},
  "note": "Like-named read-outs stand apart in the source and are kept apart here.",
  "data": [
    {"smiles": "CC(=O)CCC1C(=O)NC(C(C)C)C(=O)NC(Cc2cc(O)cc(F)c2)C(=O)N2CCCC(N2)C(=O)OC(C(C)=CC=CC(=O)OC(C)(C)C)CC=CC=CC(O)C(C)C1O", "note": "(centres unmarked) [NV651]", "values": [
      {"measurement": "fraction of cells positive for the phosphorylation of histone 3 (PH3)", "setting": "HUH7", "value": "increased"},
      {"measurement": "fraction of cells positive for the phosphorylation of histone 3 (PH3)", "setting": "HEPG2 [1]", "value": "increased"},
      {"measurement": "doubling time, elevated to", "setting": "HEPG2 [2]; different concentrations of NV651 up to 10 days, from 43 h", "value": 827, "unit": "h"},
      {"measurement": "cell viability (DAPI+ / AO+ cells)", "setting": "HEPG2 [2]; up to 10 days of exposure", "value": "could not observe any differences"},
      {"measurement": "MEC, Glutathione content", "setting": "[3]; 24 h", "value": 2.62, "unit": "µM"},
      {"measurement": "MEC, Mitochondrial Membrane potential", "setting": "[3]; 24 h", "value": 12.40, "unit": "µM"},
      {"measurement": "MEC, Nuclear intensity", "setting": "[3]; 24 h", "value": 8.90, "unit": "µM"},
      {"measurement": "MEC, ROS", "setting": "[3]; 24 h", "value": 6.43, "unit": "µM"},
      {"measurement": "MEC, Cell count (PI corrected)", "setting": "[3]; 48 h", "value": 6.14, "unit": "µM"},
      {"measurement": "MEC, DNA structure", "setting": "[3]; 48 h", "value": 10.90, "unit": "µM"},
      {"measurement": "MEC, Nuclear size", "setting": "[3]; 48 h", "value": 18.10, "unit": "µM"},
      {"measurement": "MEC, Steatosis", "setting": "[3]; 48 h", "value": 6.81, "unit": "µM"},
      {"measurement": "AC50", "setting": "[3]; 24 h, read-out: AC50, Glutathione content", "value": 10.9, "unit": "µM"},
      {"measurement": "AC50", "setting": "[3]; 24 h, read-out: AC50, Mitochondrial Membrane potential", "value": 14.2, "unit": "µM"},
      {"measurement": "AC50", "setting": "[3]; 24 h, read-out: AC50, Nuclear intensity", "value": 8.94, "unit": "µM"},
      {"measurement": "AC50", "setting": "[3]; 24 h, read-out: AC50, ROS", "value": 8.17, "unit": "µM"},
      {"measurement": "AC50", "setting": "[3]; 48 h, read-out: AC50, Cell count (PI corrected)", "value": 13.9, "unit": "µM"},
      {"measurement": "AC50", "setting": "[3]; 48 h, read-out: AC50, DNA structure", "value": 34.4, "unit": "µM"},
      {"measurement": "AC50", "setting": "[3]; 48 h, read-out: AC50, Nuclear size", "value": 21.5, "unit": "µM"},
      {"measurement": "AC50", "setting": "[3]; 48 h, read-out: AC50, Steatosis", "value": 39, "unit": "µM"},
      {"measurement": "immunosuppressant activity", "setting": "[4]", "value": "no immunosuppressant activity"},
      {"measurement": "luminescence signal (tumor growth, IVIS) vs vehicle", "setting": "Luc+ HEPG2 xenograft; after 3 weeks of treatment", "value": "significantly reduced"},
      {"measurement": "tumor growth by caliper measurements vs vehicle", "setting": "Luc+ HEPG2 xenograft; up to 3 weeks", "value": "reduced tumor growth"}
    ]}
  ]
}
